Assay results published in patent publication US9814704B2, “Substituted pyrrolo[2,3-b]pyridines as MLK inhibitors” (The University of Rochester, priority 2008, dated 2017).
pIC50: −log10 of the molar value. Counter-ions that a name gives are not always drawn.

biological target: MLK3 (Homo sapiens (Human), UniProt Q16584); assay: Radiometric Filter Plate MLK3 Assay; format: biochemical; conditions: 200 ng (130 nM) MLK3, 1 μM inactive MKK7b, 2 μM cold ATP (Km), 33P ATP, twenty minute incubation; read-out: MK3 IC50
Sequence (Q16584 whole entry): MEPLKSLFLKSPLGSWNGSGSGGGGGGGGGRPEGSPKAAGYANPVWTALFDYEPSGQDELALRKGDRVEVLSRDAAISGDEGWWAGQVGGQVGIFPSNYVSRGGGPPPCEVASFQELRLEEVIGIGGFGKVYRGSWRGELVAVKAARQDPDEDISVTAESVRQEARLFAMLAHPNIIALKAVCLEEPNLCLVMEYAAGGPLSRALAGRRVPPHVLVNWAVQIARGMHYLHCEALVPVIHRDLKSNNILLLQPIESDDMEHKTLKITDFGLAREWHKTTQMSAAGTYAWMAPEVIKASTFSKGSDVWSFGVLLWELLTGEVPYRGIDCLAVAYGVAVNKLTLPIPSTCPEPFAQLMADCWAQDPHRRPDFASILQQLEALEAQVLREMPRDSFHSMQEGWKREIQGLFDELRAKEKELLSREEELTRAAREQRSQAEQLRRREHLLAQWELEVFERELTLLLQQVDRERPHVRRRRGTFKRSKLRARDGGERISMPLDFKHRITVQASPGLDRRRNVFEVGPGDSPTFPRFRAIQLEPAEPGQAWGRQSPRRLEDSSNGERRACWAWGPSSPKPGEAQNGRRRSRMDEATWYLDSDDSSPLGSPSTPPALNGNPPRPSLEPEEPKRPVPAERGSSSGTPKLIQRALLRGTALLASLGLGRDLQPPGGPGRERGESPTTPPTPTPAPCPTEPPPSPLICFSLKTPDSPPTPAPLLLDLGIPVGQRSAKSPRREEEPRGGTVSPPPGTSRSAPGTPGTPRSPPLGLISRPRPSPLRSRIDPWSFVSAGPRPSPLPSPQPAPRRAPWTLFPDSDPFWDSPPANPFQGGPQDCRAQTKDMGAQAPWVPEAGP
Protocol: Radiometric Filter Plate MLK3 Assay
After a twenty minute incubation, the reactions were washed through filter plates and read on a scintillation counter. Results are shown in Table 4 below, in which +++ indicates ≦0.1 μM, ++ indicates >0.1 μM and ≦1 μM, and + indicates >1 μM.

`CN1CCN(Cc2cccc(-c3cnc4[nH]cc(-c5ccc(C(N)=O)cc5)c4c3)c2)CC1` [Example 156, 4-{5-[3-(4-methyl-piperazin-1-ylmethyl)-phenyl]-1H-pyrrolo[2,3-b]pyridin-3-yl}-benzamide] and `NC(=O)c1ccc(-c2c[nH]c3ncc(-c4ccc(C(=O)N5CCNCC5)cc4)cc23)cc1` [Example 149, 4-{5-[4-(piperazine-1-carbonyl)-phenyl]-1H-pyrrolo[2,3-b]pyridin-3-yl}-benzamide, hydrochloride salt] cannot be ordered by pIC50: greater than 7.00 for the first, greater than 7.00 for the second.

`COc1cc(-c2cnc3c(c2)C(Cc2ccccc2)C(=O)N3)cc(OC)c1OC` (centres unmarked) [Example 137, 3-benzyl-5-(3,4,5-trimethoxy-phenyl)-1,3-dihydro-pyrrolo[2,3-b]pyridin-2-one] and `COc1cc(-c2cnc3c(c2)C(=Cc2cccc(C#N)c2)C(=O)N3)cc(OC)c1OC` [Example 134, 3-[2-oxo-5-(3,4,5-trimethoxy-phenyl)-1,2-dihydro-pyrrolo[2,3-b]pyridin-3-ylidenemethyl]-benzonitrile] cannot be ordered by pIC50: less than 6.00 for the first, less than 6.00 for the second.

`Nc1ccc(-c2cnc3[nH]cc(-c4ccc5[nH]ccc5c4)c3c2)cc1` [Example 8, 4-(3-(1H-indol-5-yl)-1H-pyrrolo[2,3-b]pyridin-5-yl)aniline] and `CC(=O)Nc1ccc(-c2cnc3[nH]cc(-c4ccc5[nH]ccc5c4)c3c2)cc1` [Example 3, N-(4-(3-(1H-indol-5-yl)-1H-pyrrolo[2,3-b]pyridin-5-yl)phenyl)acetamide] cannot be ordered by pIC50: greater than 7.00 for the first, greater than 7.00 for the second.

`O=c1[nH]c2ncc(-c3ccncc3)nc2n1-c1ccc2[nH]ncc2c1` [Example 88, 1-(1H-indazol-5-yl)-6-(pyridin-4-yl)-1H-imidazo[4,5-b]pyrazin-2(3H)-one] and `O=c1[nH]c2ncc(-c3cc(Cl)cc(Cl)c3)nc2n1-c1ccc2[nH]ccc2c1` [Example 48, 6-(3,5-dichlorophenyl)-1-(1H-indol-5-yl)-1H-imidazo[4,5-b]pyrazin-2(3H)-one] cannot be ordered by pIC50: less than 6.00 for the first, less than 6.00 for the second.

`COc1cc(-c2cnc3[nH]cc(-c4ccc5[nH]ccc5c4)c3c2)ccc1N` [Example 5, 4-(3-(1H-indol-5-yl)-1H-pyrrolo[2,3-b]pyridin-5-yl)-2-methoxyaniline] and `CS(=O)(=O)Nc1ccc(-c2cnc3[nH]cc(-c4ccc5[nH]ccc5c4)c3c2)cc1` [Example 11, N-(4-(3-(1H-indol-5-yl)-1H-pyrrolo[2,3-b]pyridin-5-yl)phenyl)methanesulfonamide] cannot be ordered by pIC50: greater than 7.00 for the first, greater than 7.00 for the second.

`COc1cc(-c2cnc3[nH]c(=O)n(-c4cnc5[nH]ccc5c4)c3n2)cc(OC)c1OC` [Example 112, 1-(1H-pyrrolo[2,3-b]pyridin-5-yl)-6-(3,4,5-trimethoxyphenyl)-1H-imidazo[4,5-b]pyrazin-2(3H)-one] and `COc1cc(-c2cnc3[nH]c(=O)n(-c4ccc5[nH]ccc5c4)c3n2)cc(OC)c1OC` [Example 40, 1-(1H-indol-5-yl)-6-(3,4,5-trimethoxyphenyl)-1H-imidazo[4,5-b]pyrazin-2(3H)-one] cannot be ordered by pIC50: greater than 7.00 for the first, greater than 7.00 for the second.

`COc1ccc(-c2cnc3[nH]c(=O)n(-c4ccc5[nH]ccc5c4)c3n2)cc1F` [Example 49, 6-(3-fluoro-4-methoxyphenyl)-1-(1H-indol-5-yl)-1H-imidazo[4,5-b]pyrazin-2(3H)-one] and `COc1cc(-c2cnc3ncn(-c4ccc5[nH]ccc5c4)c3n2)cc(OC)c1OC` [Example 126, 1-(1H-indol-5-yl)-6-(3,4,5-trimethoxyphenyl)-1H-imidazo[4,5-b]pyrazine] cannot be ordered by pIC50: less than 6.00 for the first, less than 6.00 for the second.

Work on `O=c1[nH]c2ncc(-c3ccc(N4CCOCC4)cc3)nc2n1-c1ccc2scnc2c1` [Example 100, 1-(benzo[d]thiazol-5-yl)-6-(4-morpholinophenyl)-1H-imidazo[4,5-b]pyrazin-2(3H)-one] yielded a pIC50 of less than 6.00.

same assay, conditions: read-out: MK3 IC50

`COc1cc(-c2cnc3[nH]cc(-c4ccc(CNC(=O)Cc5ccccc5)cc4)c3c2)cc(OC)c1OC` [Example 160, 2-phenyl-N-{4-[5-(3,4,5-trimethoxy-phenyl)-1H-pyrrolo[2,3-b]pyridin-3-yl]-benzyl}-acetamide] and `COc1cc(-c2cnc3[nH]cc(-c4ccc(CNC(=O)CCc5ccccc5)cc4)c3c2)cc(OC)c1OC` [Example 161, 3-phenyl-N-{4-[5-(3,4,5-trimethoxy-phenyl)-1H-pyrrolo[2,3-b]pyridin-3-yl]-benzyl}-propionamide] fall in the same range of pIC50: 6.00 to 7.00 for the first, 6.00 to 7.00 for the second.

`COc1ccc(-c2cnc3[nH]c(=O)n(CC4CC4)c3n2)cc1OC` [Example 79, 1-(cyclopropylmethyl)-6-(3,4-dimethoxyphenyl)-1H-imidazo[4,5-b]pyrazin-2(3H)-one] and `COc1ccc(-c2cnc3[nH]c(=O)n(-c4ccc(O)cc4)c3n2)cc1OC` [Example 115, 6-(3,4-dimethoxyphenyl)-1-(4-hydroxyphenyl)-1H-imidazo[4,5-b]pyrazin-2(3H)-one] fall in the same range of pIC50: 6.00 to 7.00 for the first, 6.00 to 7.00 for the second.

`COc1cc(-c2cnc3[nH]cc(-c4ccc5[nH]ccc5c4)c3c2)ccc1OCCN1CCNCC1` [Example 34, 3-(1H-indol-5-yl)-5-(3-methoxy-4-(2-(piperazin-1-yl)ethoxy)phenyl)-1H-pyrrolo[2,3-b]pyridine] and `CNc1ccc(-c2cnc3[nH]cc(-c4ccc5[nH]ccc5c4)c3c2)cn1` [Example 30, 5-(3-(1H-indol-5-yl)-1H-pyrrolo[2,3-b]pyridin-5-yl)-N-methylpyridin-2-amine] cannot be ordered by pIC50: greater than 7.00 for the first, greater than 7.00 for the second.

`CN(C)c1ccc(-c2cnc3[nH]cc(-c4ccc5[nH]ccc5c4)c3c2)cn1` [Example 13, 5-(3-(1H-indol-5-yl)-1H-pyrrolo[2,3-b]pyridin-5-yl)-N,N-dimethylpyridin-2-amine] and `NC(=O)c1ccc(-c2c[nH]c3ncc(-c4cccc(C(=O)N5CCNCC5)c4)cc23)cc1` [Example 152, 4-{5-[3-(piperazine-1-carbonyl)-phenyl]-1H-pyrrolo[2,3-b]pyridin-3-yl}-benzamide, hydrochloride salt] fall in the same range of pIC50: 6.00 to 7.00 for the first, 6.00 to 7.00 for the second.

`O=c1[nH]c2ncc(-c3ccc(O)cc3)nc2n1C1CCCC1` [Example 76, 1-cyclopentyl-6-(4-hydroxyphenyl)-1H-imidazo[4,5-b]pyrazin-2(3H)-one] and `O=c1[nH]c2ncc(-c3ccc(O)cc3)nc2n1-c1ccc2scnc2c1` [Example 97, 1-(benzo[d]thiazol-5-yl)-6-(4-hydroxyphenyl)-1H-imidazo[4,5-b]pyrazin-2(3H)-one] fall in the same range of pIC50: 6.00 to 7.00 for the first, 6.00 to 7.00 for the second.

`COc1cc(-c2cnc3[nH]c(=O)n(-c4ccc5scnc5c4)c3n2)cc(OC)c1OC` [Example 96, 1-(benzo[d]thiazol-5-yl)-6-(3,4,5-trimethoxyphenyl)-1H-imidazo[4,5-b]pyrazin-2(3H)-one] and `COc1cc(-c2cnc3[nH]c(=O)n(-c4ccc(O)cc4)c3n2)cc(OC)c1OC` [Example 114, 1-(4-hydroxyphenyl)-6-(3,4,5-trimethoxyphenyl)-1H-imidazo[4,5-b]pyrazin-2(3H)-one] fall in the same range of pIC50: 6.00 to 7.00 for the first, 6.00 to 7.00 for the second.

`O=c1[nH]c2ncc(-c3ccc(N4CCOCC4)cc3)nc2n1-c1ccc2[nH]cnc2c1` [Example 104, 1-(1H-benzo[d]imidazol-5-yl)-6-(4-morpholinophenyl)-1H-imidazo[4,5-b]pyrazin-2(3H)-one] and `O=c1[nH]c2ncc(-c3ccncc3)nc2n1-c1ccc2cn[nH]c2c1` [Example 93, 1-(1H-indazol-6-yl)-6-(pyridin-4-yl)-1H-imidazo[4,5-b]pyrazin-2(3H)-one] fall in the same range of pIC50: 6.00 to 7.00 for the first, 6.00 to 7.00 for the second.
